Source: US11958821B2, “Phenethylamine compounds salts, polymorphic forms and methods of use thereof” (Terran Biosciences Inc., priority 2021, dated 2024)

Columns and labels:
[1] = Dynamic vapor sorption (DVS) analysis with post-DVS XRPD; type: physicochemical
Experimental: DVS analysis was carried out using a TA Instruments Q5000 Dynamic Vapor Sorption analyzer. The instrument was calibrated with standard weights and a sodium bromide standard for humidity. Approximately 5-25 mg of sample was loaded into a metal-coated quartz pan for analysis. The sample was analyzed at 25° C. with a maximum equilibration time of one hour in 10% relative humidity (RH) steps from 5 to 95% RH (adsorption cycle) and from 95 to 5% RH (desorption cycle). The movement from one step to the next occurred either after satisfying the equilibrium criterion of 0.01% weight change or, if the equilibrium criterion was not met, after one hour. The percent weight change values were calculated using Microsoft Excel®.

[2] = system: participants diagnosed with at least moderate post-traumatic stress disorder (PTSD); assay: Double-blind, randomized, placebo-controlled clinical trial of MDE-assisted psychotherapy in PTSD; type: in vivo, human; settings: for Daytime sleepiness (ESS) / Clinician-rated functional impairment score (SDS) / Depression (HAM-D) / Change in CAPS-5 assessment: Study Conclusion; for Clinician-rated functional impairment score (SDS) / Depression (HAM-D) / Change in CAPS-5 assessment: vs placebo; for Change in CAPS-5 assessment: hydrochloride salt with psychotherapy; for Total dosage of drug to achieve significant mean reduction in CAPS-5: vs racemic MDE-treated subgroup
Experimental: A multicenter, randomized, double-blind, placebo-controlled trial is conducted to assess the efficacy and safety of MDE-assisted psychotherapy versus psychotherapy with placebo control in participants diagnosed with at least moderate post-traumatic stress disorder (PTSD).
This multicenter, randomized, double-blind, placebo-controlled trial is conducted at various sites in the United States with IRB approval from each study site. A flexible dose of MDE hydrochloride salt or placebo, followed by a supplemental half-dose unless contraindicated by patient's previous response or medical history, is also administered during the Treatment Period with psychotherapy in at least 3 blinded monthly Experimental Sessions. The Supplemental Dose extends the duration of drug effects on the participants during an Experimental Session. MDE test groups are further subdivided into specific groups receiving only racemic MDE hydrochloride salt, S-MDE hydrochloride salt, or R-MDE hydrochloride salt. An optional Risk Evaluation and Mitigation Strategy (REMS) Protocol may be implemented for the racemic MDE, R-MDE, and placebo-groups. The Treatment Period lasts for approximately 12 weeks. During the Treatment Period, each Experimental Session is followed by three Intervening Sessions of non-drug psychotherapy. Each Experimental Session involves an overnight stay. The Primary Outcome measure, the change in Clinician Administered PTSD Scale for DSM-5 (CAPS-5), is determined by a blinded Independent Rater (IR) pool multiple times throughout the study. The study consists of separate periods for each participant. Initially, prospective participants undergo a Screening Period involving an initial eligibility assessment, a medical history intake, informed consent, and enrollment of eligible participants. Next, a Preparation Period is undertaken for enrolled participants involving medication tapering and clinical baseline assessments to confirm each participant meets enrollment criteria. As part of the Preparation Period, a detailed assessment of co-morbidities to PTSD is recorded. Participants may remain on prescribed courses of selective serotonin reuptake inhibitor (SSRI) or serotonin and norepinephrine reuptake inhibitor (SNRI) treatment. Dosages and/or frequency of administration of a prescribed SSRI or SNRI may be adjusted to fit within study parameters. Participants may be required to taper a prescribed course of medication in order to maintain eligibility within the study. The Treatment Period consists of three monthly Experimental Sessions and associated Intervening Sessions of integrative behavioral psychotherapy. The Treatment Period lasts approximately 12 weeks. Following the Treatment Period is a Follow-up Period and Study Conclusion. During the Follow-up Period and Study Conclusion, participants complete 4 weeks with no study visits, followed by a Study Conclusion visit.
This study compares the effects of three blinded Experimental Sessions of psychotherapy in combination with flexible doses of MDE or placebo administered as described below. Non-drug preparatory and intervening psychotherapy sessions are also included. Patient's weight is determined for dosage calculation. Initial dose is 100 mg unless this will result in a dosage of less than 1.5 mg/kg of patient weight. Initial dose thereby adjusted upward in 25 mg increments to deliver the lowest dose possible of at least 1.5 mg/kg of patient weight. Initial dose for Experimental Session 2 and 3 is cumulative dose calculated by adding the initial dose plus REMS protocol dose used the previous Experimental Session for each patient.
Randomization occurs prior to the initiation of Experimental Session 1. Each participant is provided the next randomized number in a sequence by a blinded study monitor. Participants are then randomized, according to a computer-generated randomization schedule, 1:1:1:1 to racemic MDE, S-MDE, R-MDE, or placebo. […]

Male Sprague-Dawley rats = assay: Rat elevated zero-maze study with racemic MDE, R-MDE, S-MDE and chlordiazepoxide; settings: for Percentage of time spent in the open arms (% TO), significance vs placebo / Percentage of time spent in the open arms (% TO), trend: 2.5-30 mg/kg ip
Experimental: A reduction in the amount of activity on the open areas is considered to reflect an increase in anxiety. The ethologically-based behavior, stretched attend postures (SAP) from closed to open quadrants, is assessed as an index of anxiety. […] Animals
Male Sprague-Dawley 200-250 g (Envigo UK) rats were used. Animals were group-housed (5 per cage; cage size: 40×40×20 cm) in a temperature-controlled environment (22±2° C.), under a 12 h light-dark cycle (lights on: 08:00 hours) for one week prior to testing. Food and water were freely available. Number of animals per group=5.
The elevated 0-maze comprises a black Perspex annular platform (105 cm diameter, 10 cm width) elevated to 65 cm above ground level, divided equally into four quadrants. Two opposite quadrants are enclosed by clear red Perspex walls (27 cm high) on both the inner and outer edges of the platform, while the remaining two opposite quadrants are surrounded only by a Perspex “lip” (1 cm high) which serves as a tactile guide to animals on these open areas.
Subjects were weighed and tail marked before being injected. After a specified pretreatment time, subjects were placed in a closed quadrant and a 5-min test period were recorded on videotape for subsequent analysis. The maze was cleaned with 5% methanol/water solution and dried thoroughly between test sessions. Behavioural measures comprise percentage time spent on the open areas (% TO) and frequency of stretched attend postures (SAP) from closed to open quadrants. Animals are scored as being in the open area when all four paws were in an open quadrant and in the closed area only when all four paws have passed over the open-closed divide.
Thirty min later at T=0, rats were individually placed in a closed arm of the zero-maze and behavior was assessed by a “blind” observer using remote video monitoring over the subsequent 5 min. The animal was then removed and the maze carefully wiped with 5% methanol/water solution before the next test was begun.
Thirty min later at T=0, rats were individually placed in a closed arm of the zero-maze and behavior assessed by a “blind” observer using remote video monitoring over the subsequent 5 min. The animal was then removed and the maze carefully wiped with 5% methanol/water solution before the next test was begun.

[3] = highest dose, ip, 30 min before 5-min test

SMILES	Hygroscopicity by DVS ([1]; 25° C., 5 to 95% RH, listed as MBDB Maleate Form 1)	DVS weight gain ([1]; at 95% RH)	Post-DVS XRPD (form change) ([1]; solids after DVS analysis)	Daytime sleepiness (ESS) [2]	Clinician-rated functional impairment score (SDS) [2]	Depression (HAM-D) [2]	Change in CAPS-5 assessment [2]	Total dosage of drug to achieve significant mean reduction in CAPS-5 [2]	Frequency of stretched attend postures (SAP) (Male Sprague-Dawley rats; 2.5 mg/kg ip)	Frequency of stretched attend postures (SAP) (Male Sprague-Dawley rats; 5 mg/kg ip)	Frequency of stretched attend postures (SAP) (Male Sprague-Dawley rats; 10 mg/kg ip)	Frequency of stretched attend postures (SAP) (Male Sprague-Dawley rats; 15 mg/kg ip)	Frequency of stretched attend postures (SAP) (Male Sprague-Dawley rats; 30 mg/kg ip)	Percentage of time spent in the open arms (% TO), significance vs placebo (Male Sprague-Dawley rats)	Percentage of time spent in the open arms (% TO), trend (Male Sprague-Dawley rats)	Frequency of stretched attend postures (SAP) (Male Sprague-Dawley rats; [3])	Adverse anxiogenic incidents ([2]; vs placebo-treated controls)	Percentage of time spent in the open arms (% TO) (Male Sprague-Dawley rats; 15 mg/kg ip)	Frequency of stretched attend postures (SAP) (Male Sprague-Dawley rats; 20 mg/kg ip)	Frequency of stretched attend postures (SAP) (Male Sprague-Dawley rats; any dose vs placebo)
CCC(Cc1ccc2c(c1)OCO2)NC.O=C(O)/C=C\C(=O)O (stereo not drawn) [MBDB maleate Form 1]	slightly hygroscopic	0.6%	no form change	–	–	–	–	–	–	–	–	–	–	–	–	–	–	–	–	–
CCN[C@H](C)Cc1ccc2c(c1)OCO2 [R-MDE, (R)—N-ethyl-3,4-methylenedioxyamphetamine]	–	–	–	significant improvement in lessening daytime sleepiness	significant improvement in clinician-rated functional impairment score	significant improvement depression	significant mean reduction in CAPS-5 assessment compared to the placebo group	lower total dosage of drug compared to the racemic MDE-treated subgroup	increase in the number of SAPs at the 2.5 mg/kg dose which trended towards significance	increase in SAPs at the 5 mg/kg dose range as well which trended toward significance	not significantly different from placebo	not significantly different from placebo	significant reduction in SAPs	did not show significant changes when compared to placebo	trended towards reduced time in the open arms	decreased the frequency of SAPs as effectively as the benzodiazepine chlordiazepoxide	–	–	–	–
CCN[C@@H](C)Cc1ccc2c(c1)OCO2 [S-MDE, (S)—N-ethyl-3,4-methylenedioxyamphetamine]	–	–	–	significant improvement in lessening daytime sleepiness	significant improvement in clinician-rated functional impairment score	significant improvement depression	significant mean reduction in CAPS-5 assessment compared to the placebo group	lower total dosage of drug compared to the racemic MDE-treated subgroup	–	significantly decreased the number of SAPs	significantly decreased the number of SAPs	significantly decreased the number of SAPs	–	did not show significant changes when compared to placebo	–	decreased the frequency of SAPs as effectively as the benzodiazepine chlordiazepoxide	without a significant increase in adverse anxiogenic incidents	large numerical increase in time in the open arms	significantly decreased the number of SAPs	did not increase the number of SAPs beyond placebo at any dose
CCNC(C)Cc1ccc2c(c1)OCO2 (racemic) [racemic MDE, N-ethyl-3,4-methylenedioxyamphetamine]	–	–	–	significant improvement in lessening daytime sleepiness	significant improvement in clinician-rated functional impairment score	significant improvement depression	significant mean reduction in CAPS-5 assessment compared to the placebo group	–	significant increase in SAPs	did not show any difference from placebo	dose dependent decrease in SAPs and a significant anxiolytic effect	dose dependent decrease in SAPs and a significant anxiolytic effect	dose dependent decrease in SAPs and a significant anxiolytic effect	did not show significant changes when compared to placebo	trended towards reduced time in the open arms	decreased the frequency of SAPs as effectively as the benzodiazepine chlordiazepoxide	–	–	–	–
